Data from patent EP4745135A1 (Gluetacs Therapeutics (Shanghai) Co., Ltd., priority 2023, dated 2025).
Like-named read-outs stand apart in the source and are kept apart here.

Assays:
CK1α = target: T1, CK1α (Homo sapiens, UniProt P48729+Q96SW2); test: Western blot, degradation of substrate protein in hPBMCs; type: cell-based; conditions: Western blot, 24 hours of compound treatment, compounds tested at 50 nM and 500 nM (concentration for the table not stated)
T1 construct: effects of the compounds of the present disclosure on the expression of target proteins in cells; endogenous in cells; host or cells: human PBMCs (Milecell Biotechnologies)
T1 sequence (P48729 whole entry): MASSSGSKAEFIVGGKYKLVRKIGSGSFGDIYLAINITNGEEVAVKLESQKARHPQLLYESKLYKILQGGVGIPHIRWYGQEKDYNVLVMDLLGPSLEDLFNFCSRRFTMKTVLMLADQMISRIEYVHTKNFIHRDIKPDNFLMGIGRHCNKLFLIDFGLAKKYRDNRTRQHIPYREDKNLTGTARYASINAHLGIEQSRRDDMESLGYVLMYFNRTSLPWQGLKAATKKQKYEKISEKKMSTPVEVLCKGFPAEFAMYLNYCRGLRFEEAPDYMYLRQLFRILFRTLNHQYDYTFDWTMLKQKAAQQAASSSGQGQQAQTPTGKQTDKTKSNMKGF
T1 sequence (Q96SW2 whole entry): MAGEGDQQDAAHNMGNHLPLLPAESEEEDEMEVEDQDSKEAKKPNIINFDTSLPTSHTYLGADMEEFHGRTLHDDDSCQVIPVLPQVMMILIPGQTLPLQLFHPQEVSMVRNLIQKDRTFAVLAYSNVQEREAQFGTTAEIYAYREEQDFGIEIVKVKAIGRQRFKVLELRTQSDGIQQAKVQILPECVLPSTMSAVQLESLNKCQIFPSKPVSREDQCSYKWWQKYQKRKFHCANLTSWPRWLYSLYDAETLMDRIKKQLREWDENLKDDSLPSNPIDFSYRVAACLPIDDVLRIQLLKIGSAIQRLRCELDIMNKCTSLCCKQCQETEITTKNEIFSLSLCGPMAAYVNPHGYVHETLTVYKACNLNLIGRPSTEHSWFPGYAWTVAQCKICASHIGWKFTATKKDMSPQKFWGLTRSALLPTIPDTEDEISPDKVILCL
T1 sequence (Q16531 whole entry partner): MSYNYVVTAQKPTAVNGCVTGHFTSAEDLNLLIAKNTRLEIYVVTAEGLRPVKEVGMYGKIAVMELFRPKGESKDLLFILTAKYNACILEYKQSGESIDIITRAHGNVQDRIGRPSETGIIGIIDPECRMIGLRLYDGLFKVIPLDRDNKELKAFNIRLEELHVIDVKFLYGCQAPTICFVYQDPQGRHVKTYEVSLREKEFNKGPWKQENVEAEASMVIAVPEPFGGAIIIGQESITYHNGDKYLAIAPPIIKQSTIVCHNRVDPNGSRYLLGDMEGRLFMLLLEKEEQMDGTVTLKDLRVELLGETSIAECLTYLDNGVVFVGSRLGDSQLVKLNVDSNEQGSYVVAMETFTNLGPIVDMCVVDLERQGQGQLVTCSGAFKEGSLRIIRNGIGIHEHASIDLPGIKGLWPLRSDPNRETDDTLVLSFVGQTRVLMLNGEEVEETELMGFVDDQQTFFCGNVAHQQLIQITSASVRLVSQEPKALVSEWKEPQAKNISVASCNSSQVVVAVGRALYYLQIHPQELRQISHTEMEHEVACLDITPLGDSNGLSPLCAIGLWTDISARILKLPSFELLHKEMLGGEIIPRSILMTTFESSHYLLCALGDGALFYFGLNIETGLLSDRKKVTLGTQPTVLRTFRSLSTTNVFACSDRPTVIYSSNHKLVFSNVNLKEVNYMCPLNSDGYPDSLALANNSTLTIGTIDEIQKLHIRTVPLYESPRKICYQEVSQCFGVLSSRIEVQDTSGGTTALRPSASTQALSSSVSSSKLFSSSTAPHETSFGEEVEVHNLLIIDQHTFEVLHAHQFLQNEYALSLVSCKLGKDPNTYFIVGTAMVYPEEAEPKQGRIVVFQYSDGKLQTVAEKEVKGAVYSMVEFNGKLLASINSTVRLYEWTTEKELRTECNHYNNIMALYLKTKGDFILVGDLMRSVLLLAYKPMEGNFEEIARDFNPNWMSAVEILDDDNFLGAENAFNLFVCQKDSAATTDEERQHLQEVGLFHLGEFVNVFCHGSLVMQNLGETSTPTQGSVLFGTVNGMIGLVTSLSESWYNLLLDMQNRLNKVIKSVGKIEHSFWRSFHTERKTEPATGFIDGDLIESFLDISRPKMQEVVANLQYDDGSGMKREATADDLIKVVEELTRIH

IKZF1 = target: T2, IKZF1 (Homo sapiens, UniProt Q13422+Q96SW2); test: as above; type: cell-based; conditions: Western blot, 24 hours of compound treatment, compounds tested at 50 nM and 500 nM (concentration for the table not stated)
T2 construct: effects of the compounds of the present disclosure on the expression of target proteins in cells; endogenous in cells; host or cells: human PBMCs (Milecell Biotechnologies)
T2 sequence (Q13422 whole entry): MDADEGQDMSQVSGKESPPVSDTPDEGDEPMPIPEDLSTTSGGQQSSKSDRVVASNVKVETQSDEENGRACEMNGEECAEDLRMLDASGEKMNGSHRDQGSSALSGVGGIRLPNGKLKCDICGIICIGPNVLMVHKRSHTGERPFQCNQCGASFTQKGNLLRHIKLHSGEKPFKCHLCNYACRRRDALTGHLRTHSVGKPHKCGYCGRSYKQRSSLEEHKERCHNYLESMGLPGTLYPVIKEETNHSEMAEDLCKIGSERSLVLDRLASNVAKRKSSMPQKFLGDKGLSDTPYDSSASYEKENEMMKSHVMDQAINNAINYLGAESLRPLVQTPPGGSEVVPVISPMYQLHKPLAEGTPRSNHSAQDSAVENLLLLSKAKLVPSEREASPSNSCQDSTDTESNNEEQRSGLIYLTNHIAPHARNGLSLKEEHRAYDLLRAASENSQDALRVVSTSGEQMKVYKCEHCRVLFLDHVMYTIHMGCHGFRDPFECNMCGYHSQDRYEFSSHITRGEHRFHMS
T2 sequence (Q96SW2 whole entry): as the sequence (Q96SW2 whole entry) above
T2 sequence (Q16531 whole entry partner): as the sequence (Q16531 whole entry partner) above

IKZF2 = target: T3, IKZF2 (Homo sapiens, UniProt Q96SW2+Q9UKS7); test: as above; type: cell-based; conditions: Western blot, 24 hours of compound treatment, compounds tested at 50 nM and 500 nM (concentration for the table not stated)
T3 construct: effects of the compounds of the present disclosure on the expression of target proteins in cells; endogenous in cells; host or cells: human PBMCs (Milecell Biotechnologies)
T3 sequence (Q9UKS7 whole entry): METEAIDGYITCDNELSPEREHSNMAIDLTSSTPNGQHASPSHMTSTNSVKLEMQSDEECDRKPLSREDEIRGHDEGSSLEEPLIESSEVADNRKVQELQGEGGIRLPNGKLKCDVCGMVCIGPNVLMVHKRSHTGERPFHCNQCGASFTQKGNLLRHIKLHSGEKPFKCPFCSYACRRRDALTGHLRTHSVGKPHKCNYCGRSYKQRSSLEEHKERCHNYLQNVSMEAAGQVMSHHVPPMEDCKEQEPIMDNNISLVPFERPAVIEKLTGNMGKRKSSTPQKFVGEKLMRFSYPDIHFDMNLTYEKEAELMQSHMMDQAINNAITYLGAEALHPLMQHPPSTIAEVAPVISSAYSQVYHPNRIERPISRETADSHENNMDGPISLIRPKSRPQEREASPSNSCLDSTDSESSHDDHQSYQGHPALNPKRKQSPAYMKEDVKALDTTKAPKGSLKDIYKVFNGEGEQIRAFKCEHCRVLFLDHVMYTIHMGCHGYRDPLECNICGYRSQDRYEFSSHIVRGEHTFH
T3 sequence (Q96SW2 whole entry): as the sequence (Q96SW2 whole entry) above
T3 sequence (Q16531 whole entry partner): as the sequence (Q16531 whole entry partner) above

IKZF3 = target: T4, IKZF3 (Homo sapiens, UniProt Q96SW2+Q9UKT9); test: as above; type: cell-based; conditions: Western blot, 24 hours of compound treatment, compounds tested at 50 nM and 500 nM (concentration for the table not stated)
T4 construct: effects of the compounds of the present disclosure on the expression of target proteins in cells; endogenous in cells; host or cells: human PBMCs (Milecell Biotechnologies)
T4 sequence (Q9UKT9 whole entry): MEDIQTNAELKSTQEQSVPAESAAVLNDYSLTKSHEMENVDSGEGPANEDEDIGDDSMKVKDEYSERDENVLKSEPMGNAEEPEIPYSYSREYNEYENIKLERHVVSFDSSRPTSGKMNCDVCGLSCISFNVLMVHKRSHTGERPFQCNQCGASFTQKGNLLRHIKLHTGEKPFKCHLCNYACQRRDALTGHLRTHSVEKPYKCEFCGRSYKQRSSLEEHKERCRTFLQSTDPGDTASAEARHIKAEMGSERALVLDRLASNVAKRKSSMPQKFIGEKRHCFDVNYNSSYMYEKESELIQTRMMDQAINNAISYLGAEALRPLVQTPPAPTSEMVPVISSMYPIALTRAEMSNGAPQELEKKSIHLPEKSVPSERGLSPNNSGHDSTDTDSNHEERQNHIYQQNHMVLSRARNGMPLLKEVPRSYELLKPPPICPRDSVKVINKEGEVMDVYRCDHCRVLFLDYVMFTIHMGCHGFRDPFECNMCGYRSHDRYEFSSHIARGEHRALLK
T4 sequence (Q96SW2 whole entry): as the sequence (Q96SW2 whole entry) above
T4 sequence (Q16531 whole entry partner): as the sequence (Q16531 whole entry partner) above

WEE1 = target: T5, WEE1 (Homo sapiens, UniProt P30291+Q96SW2); test: as above; type: cell-based; conditions: Western blot, 24 hours of compound treatment, compounds tested at 50 nM and 500 nM (concentration for the table not stated)
T5 construct: effects of the compounds of the present disclosure on the expression of target proteins in cells; endogenous in cells; host or cells: human PBMCs (Milecell Biotechnologies)
T5 sequence (P30291 whole entry): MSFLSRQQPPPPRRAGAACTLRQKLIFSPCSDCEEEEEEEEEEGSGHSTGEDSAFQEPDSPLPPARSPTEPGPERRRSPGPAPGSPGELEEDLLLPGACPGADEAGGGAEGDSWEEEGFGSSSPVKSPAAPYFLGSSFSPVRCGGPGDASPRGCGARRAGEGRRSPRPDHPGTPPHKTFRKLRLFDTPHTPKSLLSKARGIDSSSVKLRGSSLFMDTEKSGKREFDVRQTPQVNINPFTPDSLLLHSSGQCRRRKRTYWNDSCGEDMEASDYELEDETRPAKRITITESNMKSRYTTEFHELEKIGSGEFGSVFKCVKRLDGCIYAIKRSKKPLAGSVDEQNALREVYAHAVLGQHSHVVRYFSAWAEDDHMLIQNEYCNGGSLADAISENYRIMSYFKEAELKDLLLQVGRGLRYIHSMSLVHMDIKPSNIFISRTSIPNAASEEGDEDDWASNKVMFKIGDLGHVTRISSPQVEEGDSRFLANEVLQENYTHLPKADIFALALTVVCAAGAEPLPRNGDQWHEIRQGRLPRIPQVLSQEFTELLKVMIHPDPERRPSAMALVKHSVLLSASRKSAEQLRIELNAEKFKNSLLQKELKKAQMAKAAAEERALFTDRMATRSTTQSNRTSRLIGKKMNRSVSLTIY
T5 sequence (Q96SW2 whole entry): as the sequence (Q96SW2 whole entry) above
T5 sequence (Q16531 whole entry partner): as the sequence (Q16531 whole entry partner) above

GSPT1 = test: as above; type: cell-based, Human; conditions: Western blot, 24 hours of compound treatment, compounds tested at 50 nM and 500 nM (concentration for the table not stated)
[1] = target: T6, human Cereblon WT GST-tagged protein (Homo sapiens, UniProt Q96SW2); test: CRBN-binding affinity, HTRF (CEREBLON BINDING kit)
T6 construct: purchased CISBIO 64BDCRBNPEH
T6 sequence (Q96SW2 whole entry): as the sequence (Q96SW2 whole entry) above

[2] = system: Human multiple myeloma cell (MM.1S); test: Tumor cell proliferation inhibition (CellTiter-Meiluncell luminescent cell viability assay); conditions: Homo sapiens, MM1.S, 96 h, read-out: Inhibitory activity (IC50, nM) on tumor cell proliferation, MM.1S
[3] = system: Human breast cancer cell (MCF-7); test: as above; conditions: MCF7, 96 h, read-out: Inhibitory activity (IC50, nM) on tumor cell proliferation, MCF7
[4] = system: Human T lymphocytic leukemia cell line: Jurkat; test: as above; conditions: 96 h, read-out: Inhibitory activity (IC50, nM) on tumor cell proliferation, Jurkat
Procedure: (§1) The tumor cells used herein were cultured in a cell culture medium listed in table 2 at 37°C in an incubator with 5% CO2. Prior to experimentation, all cell lines used were correctly identified by STR profiling, and tested negative for mycoplasma contamination using a mycoplasma detection kit through routine screenings.
(§2) The IC50 values of the compounds of the present disclosure (including the compounds in Table 1 and Examples) were determined using the CellTiter-Meiluncell Luminescent Cell Viability Assay Kit from Dalian Meilun Biotech Co., Ltd. The detailed procedure is as follows: Tumor cells were seeded in 96-well cell culture plates at the densities specified in Table 3. On the following day, the test compounds of the present disclosure were subjected to serial dilution. The dilution can be performed according to one of the following two methods: • (1) The first dilution method: The test compounds of the present disclosure (including the compounds in Table 1 and Examples) were subjected to 5-fold serial dilutions starting from a highest concentration of 2000 µM, resulting in a total of 9 concentrations from high to low (2000, 400, 80, 16, 3.2, 0.64, 0.128, 0.0256, 0.00512 µM). Subsequently, 0.5 µL of the test compound dilution was transferred into the 96-well plate containing the cells, with each well containing 100 µL of cell culture medium. […] Into the 96-well plate, the diluted test compounds and corresponding detection reagents were added, resulting in final test compound concentrations of 500 nM and 10 nM, respectively. The experimental procedure is described below using the diluted 2 µM test compound as an example.
(§3) 0.5 µL of the aforementioned diluted compound of the present disclosure (including the compounds in Table 1 and Examples) was added to the seeded cells in 100 µL of medium, yielding a final test compound concentration of 10 nM. After the cells were treated with the compounds of the present disclosure for a specified period, the cell viability assay reagent was added to the culture medium according to the kit's instructions to determine cell viability. […] All controls were treated using the same procedure as the compounds of the present disclosure. The growth inhibition curves for the compounds of the present disclosure were plotted using Prism GraphPad software, and the IC50 values were calculated therefrom.

[5] = system: Human non-small cell lung cancer cell line: NCI-H1975; test: as above; conditions: NCI-H1975, 96 h, read-out: Inhibitory activity (IC50, nM) on tumor cell proliferation, H1975
Procedure: as §1, §2, §3

[6] = system: Human mantle cell lymphoma cell line: JEKO-1; test: as above; conditions: JeKo-1, 96 h, read-out: Inhibitory activity (IC50, nM) on tumor cell proliferation, JEKO-1
Procedure: as §1, §2, §3

[7] = system: Human gastric cancer cell line: MGC803; test: as above; conditions: MGC-803, read-out: Inhibitory activity (IC50, nM) on tumor cell proliferation, MGC803
Procedure: as §2, §3

[8] = CRBN binding, HTRF, 3 hours at room temperature; read-out: HTRF IC50

| IC50 [1, 8] | Structure (SMILES) | CK1α substrate protein remaining % (CK1α) | IKZF 1 substrate protein remaining % (IKZF1) | IKZF2 substrate protein remaining % (IKZF2) | IKZF3 substrate protein remaining % (IKZF3) | Wee1 substrate protein remaining % (WEE1) | GSPT1 substrate protein remaining % (GSPT1) | IC50 [2] | IC50 [3] | IC50 [4] | IC50 [5] | IC50 [6] | IC50 [7] | IC50 ([1]; read-out: HTRF IC50; CRBN binding, HTRF, 3 hours at room temperature) |
| --- | --- | --- | --- | --- | --- | --- | --- | --- | --- | --- | --- | --- | --- | --- |
| 500 to 1000 nM | O=C1CCC(N2Cc3cc(CN4CCC(Nc5ccccc5-c5ccc(Cl)cc5)CC4)ccc3C2=S)C(=O)N1 (stereo not shown) [GT-05109, 3-(5-((4-((4'-chloro-[1,1'-biphenyl]-2-yl)amino)piperidin-1-yl)methyl)-1-thioxoisoindolin-2-yl)piperidine-2,6-dione] | A (0% ≤ substrate protein remaining % ≤ 80%) | A (0% ≤ substrate protein remaining % ≤ 80%) | A (0% ≤ substrate protein remaining % ≤ 80%) | A (0% ≤ substrate protein remaining % ≤ 80%) | A (0% ≤ substrate protein remaining % ≤ 80%) | A (0% ≤ substrate protein remaining % ≤ 80%) | < 5 nM | 10 to 50 nM | < 5 nM | 5 to 10 nM | 5 to 10 nM | 10 to 50 nM |  |
|  | O=C1CCC(N2Cc3cc(CN4CCC(N(c5ccccc5)c5ccccc5)CC4)ccc3C2=S)C(=O)N1 (stereo not shown) | B (80%< substrate protein remaining %≤ 100%) | A (0% ≤ substrate protein remaining % ≤ 80%) | A (0% ≤ substrate protein remaining % ≤ 80%) | A (0% ≤ substrate protein remaining % ≤ 80%) | A (0% ≤ substrate protein remaining % ≤ 80%) | A (0% ≤ substrate protein remaining % ≤ 80%) | < 5 nM | 10 to 50 nM | < 5 nM | 5 to 10 nM | < 5 nM | 5 to 10 nM | 100 to 500 nM |
| 100 to 500 nM | O=C1CCC(N2Cc3cc(CN4CCN(c5cccc6sccc56)CC4)ccc3C2=S)C(=O)N1 (stereo not shown) [GT-05088, 3-(5-((4-(benzo[b]thiophen-4-yl)piperazin-1-yl)methyl)-1-thioxoisoindolin-2-yl)piperidine-2,6-dione] | B (80%< substrate protein remaining %≤ 100%) | A (0% ≤ substrate protein remaining % ≤ 80%) | A (0% ≤ substrate protein remaining % ≤ 80%) | A (0% ≤ substrate protein remaining % ≤ 80%) | A (0% ≤ substrate protein remaining % ≤ 80%) | A (0% ≤ substrate protein remaining % ≤ 80%) | 10 to 50 nM | 100 to 500 nM | 50 to 100 nM | 50 to 100 nM | 10 to 50 nM | 100 to 500 nM |  |
| 500 to 1000 nM | Cc1ccc(Sc2ccccc2N2CCN(Cc3ccc4c(c3)CN(C3CCC(=O)NC3=O)C4=S)CC2)c(C)c1 (stereo not shown) [GT-05092, 3-(5-((4-(2-((2,4-dimethylphenyl)thio)phenyl)piperazin-1-yl)methyl)-1-thioxoisoindolin-2-yl)piperidine-2,6-dione] | B (80%< substrate protein remaining %≤ 100%) | A (0% ≤ substrate protein remaining % ≤ 80%) | A (0% ≤ substrate protein remaining % ≤ 80%) | A (0% ≤ substrate protein remaining % ≤ 80%) | A (0% ≤ substrate protein remaining % ≤ 80%) | A (0% ≤ substrate protein remaining % ≤ 80%) | 10 to 50 nM | 100 to 500 nM | 50 to 100 nM | 50 to 100 nM | 10 to 50 nM | 100 to 500 nM |  |
| 500 to 1000 nM | O=C1CCC(N2Cc3cc(CN4CCN(C(c5ccccc5)c5ccccc5)CC4)ccc3C2=S)C(=O)N1 (stereo not shown) [GT-05104, 3-(5-((4-benzhydrylpiperazin-1-yl)methyl)-1-thioxoisoindolin-2-yl)piperidine-2,6-dione] | B (80%< substrate protein remaining %≤ 100%) | B (80%< substrate protein remaining %≤ 100%) | B (80%< substrate protein remaining %≤ 100%) | B (80%< substrate protein remaining %≤ 100%) | A (0% ≤ substrate protein remaining % ≤ 80%) | A (0% ≤ substrate protein remaining % ≤ 80%) | < 5 nM |  | 100 to 500 nM | 100 to 500 nM | 100 to 500 nM | 50 to 100 nM |  |

| Structure (SMILES) | IC50 [1, 8] | CK1α substrate protein remaining % (CK1α) | IKZF 1 substrate protein remaining % (IKZF1) | IKZF2 substrate protein remaining % (IKZF2) | IKZF3 substrate protein remaining % (IKZF3) | Wee1 substrate protein remaining % (WEE1) | GSPT1 substrate protein remaining % (GSPT1) | IC50 [2] | IC50 [3] | IC50 [4] | IC50 [5] | IC50 [6] | IC50 [7] | IC50 ([1]; read-out: HTRF IC50; CRBN binding, HTRF, 3 hours at room temperature) |
| --- | --- | --- | --- | --- | --- | --- | --- | --- | --- | --- | --- | --- | --- | --- |
| O=C1CCC(N2Cc3cc(CN4CC=C(c5cccc(Cl)c5Cl)CC4)ccc3C2=S)C(=O)N1 (stereo not shown) [GT-05149, 3-(5-((4-(2,3-dichlorophenyl)-3,6-dihydropyridin-1(2H)-yl)methyl)-1-thioxoisoindolin-2-yl)piperidine-2,6-dione] | 100 to 500 nM | B (80%< substrate protein remaining %≤ 100%) | A (0% ≤ substrate protein remaining % ≤ 80%) | A (0% ≤ substrate protein remaining % ≤ 80%) | A (0% ≤ substrate protein remaining % ≤ 80%) | A (0% ≤ substrate protein remaining % ≤ 80%) | A (0% ≤ substrate protein remaining % ≤ 80%) | < 5 nM | 10 to 50 nM | 5 to 10 nM | 10 to 50 nM | 5 to 10 nM | 10 to 50 nM |  |
| Cc1ccc(C2=CCN(Cc3ccc4c(c3)CN(C3CCC(=O)NC3=O)C4=S)CC2)s1 (stereo not shown) [GT-05111, 3-(5-((4-(5-methylthiophen-2-yl)-3,6-dihydropyridin-1(2H)-yl)methyl)-1-thioxoisoindolin-2-yl)piperidine-2,6-dione] | 100 to 500 nM | A (0% ≤ substrate protein remaining % ≤ 80%) | A (0% ≤ substrate protein remaining % ≤ 80%) | A (0% ≤ substrate protein remaining % ≤ 80%) | A (0% ≤ substrate protein remaining % ≤ 80%) | A (0% ≤ substrate protein remaining % ≤ 80%) | A (0% ≤ substrate protein remaining % ≤ 80%) | 10 to 50 nM | 100 to 500 nM | 50 to 100 nM | 50 to 100 nM | 50 to 100 nM | 100 to 500 nM |  |
| Cc1cscc1C1=CCN(Cc2ccc3c(c2)CN(C2CCC(=O)NC2=O)C3=S)CC1 (stereo not shown) [GT-05145, 3-(5-((4-(4-methylthiophen-3-yl)-3,6-dihydropyridin-1(2H)-yl)methyl)-1-thioxoisoindolin-2-yl)piperidine-2,6-dione] | < 100 nM | A (0% ≤ substrate protein remaining % ≤ 80%) | A (0% ≤ substrate protein remaining % ≤ 80%) | A (0% ≤ substrate protein remaining % ≤ 80%) | A (0% ≤ substrate protein remaining % ≤ 80%) | A (0% ≤ substrate protein remaining % ≤ 80%) | A (0% ≤ substrate protein remaining % ≤ 80%) | < 5 nM | 10 to 50 nM | < 5 nM | 5 to 10 nM | < 5 nM | 10 to 50 nM |  |
